Measurements: US7282507B2, “Indole derivatives as selective androgen receptor modulators (SARMS)” (Janssen Pharmaceutica N.V., priority 2004, dated 2007)
Where “and” joins values, the source holds several entries; their conditions need not be identical. Equal entries are not always repeated. Where two headings read alike, the source gives them in different places.

Assays:
[1] = biological target: T1, androgen receptor (AdEasy+rAR, COS-7 cells) (Rattus norvegicus, UniProt P15207); test: COS-7 Whole-Cell Androgen Receptor Binding Assay, Adenovirus Transduction; conditions: for inhibition at 3 µM / % Inhibition, COS Binding: concentration of 3000 nM
T1 construct: expressed in transfected cells; host or cells: COS-7 cells transduced with adenovirus AdEasy+rAR
T1 sequence (P15207 1-902): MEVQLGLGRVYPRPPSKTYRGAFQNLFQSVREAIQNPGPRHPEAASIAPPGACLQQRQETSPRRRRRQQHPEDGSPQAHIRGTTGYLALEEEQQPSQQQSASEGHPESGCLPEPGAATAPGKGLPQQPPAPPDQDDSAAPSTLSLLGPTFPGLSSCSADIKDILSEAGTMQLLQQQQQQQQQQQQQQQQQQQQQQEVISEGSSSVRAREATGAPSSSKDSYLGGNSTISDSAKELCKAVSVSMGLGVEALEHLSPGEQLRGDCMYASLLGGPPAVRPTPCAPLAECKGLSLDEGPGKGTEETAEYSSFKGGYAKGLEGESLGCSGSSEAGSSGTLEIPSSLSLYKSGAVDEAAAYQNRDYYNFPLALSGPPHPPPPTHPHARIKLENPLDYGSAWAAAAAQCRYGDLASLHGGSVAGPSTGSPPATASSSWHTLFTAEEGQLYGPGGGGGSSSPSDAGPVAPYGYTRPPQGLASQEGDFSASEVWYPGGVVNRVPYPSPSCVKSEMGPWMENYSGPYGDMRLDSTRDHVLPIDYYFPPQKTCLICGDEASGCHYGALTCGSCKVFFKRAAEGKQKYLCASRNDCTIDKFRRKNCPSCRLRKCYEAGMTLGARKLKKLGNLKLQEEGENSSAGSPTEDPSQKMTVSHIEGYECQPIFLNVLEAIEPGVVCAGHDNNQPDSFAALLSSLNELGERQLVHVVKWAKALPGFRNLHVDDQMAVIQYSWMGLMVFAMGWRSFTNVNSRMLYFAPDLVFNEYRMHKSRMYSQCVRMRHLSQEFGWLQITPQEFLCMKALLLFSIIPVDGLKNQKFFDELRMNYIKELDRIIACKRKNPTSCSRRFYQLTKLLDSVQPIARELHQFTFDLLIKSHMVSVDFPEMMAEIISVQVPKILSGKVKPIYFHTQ
Protocol: COS-7 cells were plated in 96-well plates at 20,000 cells per well, in a solution of DMEM/F12 (GIBCO) containing 10% (v/v) charcoal-treated fetal bovine serum (Hyclone) and lacking phenol red. The cells were then incubated overnight at 37° C. in 5% (v/v) humidified CO2.
Test compound solutions were prepared by diluting the test compound in 100% (v/v) DMSO, if necessary.
Next, 1 mL of DMEM/F12 lacking phenol red was pipetted into each of the wells of a 2-mL 96-well assay block. […] The wells were carefully mixed by pipette.
In a 15 mL or 50 mL sterile centrifuge tube, a dilution in DMEM/F12 of the adenovirus AdEasy+rAR at a moi of 1:50 per well was prepared.
The medium was removed from the 96-well plates by inversion and the plates dried very briefly, inverted, on a sterile towel. As soon as possible after medium removal, 40 μL of the diluted test compound was added to each well, in duplicate. […] The plates were then incubated for 48 hours at 37° C. in 5% (v/v) humidified CO2.
The medium was removed from the above incubated plates by inversion and dried. Each well was then washed with 0.35 mL of 1× PBS. The PBS was then removed from the plates by inversion and the plates dried.
To each well was then added 50 μL of 0.5% (v/v) Triton X-100 (Sigma) in 1× PBS and the plates placed on a rotary shaker for 5 min. The contents of each well were then transferred to an OptiPlate-96 (Packard) scintillation plate. To each well was then added 0.2 mL of Microscint-20 (Packard) and the wells counted on a TopCount (Packard).
Percent inhibition was determined by testing dilutions of the test compound (usually duplicates of 10 μM) in the binding assay. Counts per well were measured and percents of inhibition determined. […] Counts per well were measured and IC50s determined by linear regression.

[2] = biological target: T2, androgen receptor (AdEasy+rAR, L929 cells) (Rattus norvegicus, UniProt P15207); test: L929 Androgen Receptor Functional Assay, Adenovirus Transduction; assay type: cell-based; conditions: for inhibition at 3 µM: L929, antagonist testing with R1881, 3000 nM; for % Activity, L929 androgen receptor functional assay: agonist testing, 3000 nM; for IC50: antagonist testing with R1881; for % Inhibition, L929 androgen receptor functional assay: antagonist testing with R1881, 3000 nM
T2 construct: expressed in transfected cells; host or cells: L929 cells transduced with adenovirus AdEasy+rAR
T2 sequence (P15207 1-902): T1 sequence (P15207 1-902)
Outline: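 Luminescent reporter readout after 48 h at 37 °C: rat AR delivered by adenovirus (AdEasy+rAR, moi 1:500) into L929 cells grown without phenol red in charcoal-treated serum. Antagonist wells also received R1881 (2.5× dilution at 2.5 nM).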

[3] = system: testosterone-enhanced ventral prostate and seminal vesicle weights; test: Ventral Prostate and Seminal Vesicle Weight in vivo Assay; parameters: species or system rat; conditions: immature castrated male Sprague Dawley rats, once daily for five days, usually orally 40 mg/kg, with testosterone propionate 2 mg/kg s.c. Also: key: 'active' if the non weight adjusted prostate weight was ≦40 mg or the % Inhibition prostate weight, body weight adjusted was ≧40% @ 2 mg/day dosage; ID50's, if determined, of ≦15 mg/day also indicated an 'active' compound; listed herein as 'inactive' as they did not meet the specified criteria defined above.
Outline: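 Wet weights of ventral prostate and seminal vesicles were taken on day six. Castrated immature male Sprague Dawley rats had received five daily doses of testosterone propionate (2 mg/kg s.c.) together with test compound, typically 40 mg/kg orally. Activity was scored from absolute prostate weight or body-weight-adjusted % inhibition.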

[4] = read-out: IC50 (nM), COS Binding

| Structure (SMILES) | inhibition at 3 µM [1] [%] | inhibition at 3 µM [2] [%] | % Activity, L929 androgen receptor functional assay [2] [%] | active / inactive: inhibition of testosterone-enhanced prostate weight [3] | IC50 [1, 4] | other results |
| --- | --- | --- | --- | --- | --- | --- |
| CC(O)(CSc1ccc(C(=O)O)cc1)c1cc2cc(Cl)c(C(F)(F)F)cc2[nH]1 (centres unmarked) [Compound 133] | 65 | 19 | −4 | inactive | – | IC50 ([1]; IC50 (nM), COS Binding): > 1500 nM |
| CN(C)c1ccc(SCC(C)(O)c2cc3cc(Cl)c(C(F)(F)F)cc3[nH]2)cc1 (centres unmarked) [Compound 124] | – | – | −4 | inactive | > 3000 nM | – |
| CCSCC(C)(OC)c1cc2cc([N+](=O)[O-])c(C(F)(F)F)cc2[nH]1 (centres unmarked) [Compound 167] | – | – | – | active | > 3000 nM | – |
| O=[N+]([O-])c1cc2cc(C3(O)CCSCC3)[nH]c2cc1C(F)(F)F [Compound 17] | – | – | – | inactive | > 1500 nM | – |
| CSCC(C)(O)c1cc2cc([N+](=O)[O-])c(C(F)(F)F)cc2[nH]1 (racemic) [Compound 139] | 94 | – | – | active | 63 nM and 252 nM | % Inhibition, COS Binding ([1]; 3 µM): 97%; % Activity, L929 androgen receptor functional assay ([2]; 3 µM): 0% and 1% |
| CCSCC(C)(O)c1[nH]c2cc(C(F)(F)F)c(C#N)cc2c1C (centres unmarked) [Compound 219] | – | 103 | −3 | inactive | 6.2 nM | – |
| CCSCC(C)(O)c1[nH]c2cc(C(F)(F)F)c(C#N)cc2c1C (single isomer, unassigned) [Compound 234, 2-(2-Ethylsulfanyl-1-hydroxy-1-methyl-ethyl)-3-methyl-6-trifluoromethyl-1H-indole-5-carbonitrile] | – | – | – | inactive | 539 nM | % Inhibition, COS Binding ([1]; 3 µM): 71%; % Activity, L929 androgen receptor functional assay ([2]; 3 µM): −1%; IC50 [2]: 215 nM; % Inhibition, L929 androgen receptor functional assay ([2]; 3 µM): 99% |
| CCC(O)(CSCC(F)(F)F)c1cc2cc(F)c(C(F)(F)F)cc2[nH]1 (centres unmarked) [Compound 194] | 80 | 40 | 2 | inactive | 320 nM | – |
| CCC(O)(CS(=O)(=O)CC(F)(F)F)c1cc2cc([N+](=O)[O-])c(C(F)(F)F)cc2[nH]1 (centres unmarked) [Compound 191] | 65 | -6 | 2 | active | 840 nM | – |
| CCS(=O)(=O)CC(C)(O)c1[nH]c2cc(C(F)(F)F)c(C#N)cc2c1C (racemic) [Compound 246] | 70 | – | – | – | 616 nM | – |
| CCSCC(C)(OC)c1cc2cc(C#N)c(C(F)(F)F)cc2n1C (centres unmarked) [Compound 235] | 78 | 95 | 3 | inactive | 520 nM | IC50 [2]: 1840 nM |
| CCCCSCC(C)(O)c1cc2cc([N+](=O)[O-])c(C(F)(F)F)cc2[nH]1 (centres unmarked) [Compound 200] | 97 | 96 | 1 | inactive | – | – |
| CSCC(C)(O)c1cc2cc(Cl)c(C(F)(F)F)cc2n1S(C)(=O)=O (centres unmarked) [Compound 134] | – | – | – | inactive | > 10000 nM | – |
| CCSCC(C)(O)c1cc2cc(C#N)c(Cl)cc2[nH]1 (centres unmarked) [Compound 225] | 82 | 97 | 1 | – | 142 nM | IC50 [2]: 229 nM |
| CC(O)(CS(C)(=O)=O)c1cc2cc(Cl)c(C(F)(F)F)cc2n1S(C)(=O)=O (centres unmarked) [Compound 137] | 73 | 77 | 0 | inactive | – | IC50 ([1]; IC50 (nM), COS Binding): > 1500 nM |
| CC(O)(CSCC(F)(F)F)c1cc2cc(F)c(C(F)(F)F)cc2[nH]1 (centres unmarked) [Compound 189] | 100 | 85 | 3 | inactive | 280 nM | – |
| CC(O)(CSCC(F)(F)F)c1cc2cc([N+](=O)[O-])c(C(F)(F)F)cc2[nH]1 (centres unmarked) [Compound 201] | – | – | – | inactive | 340 nM | % Inhibition, COS Binding ([1]; 3 µM): 86%; % Activity, L929 androgen receptor functional assay ([2]; 3 µM): 2%; % Inhibition, L929 androgen receptor functional assay ([2]; 3 µM): 83% |
| CCS(=O)(=O)CC(C)(O)c1cc2cc([N+](=O)[O-])c(C(F)(F)F)cc2[nH]1 (centres unmarked) [Compound 175] | – | – | – | active | > 3000 nM | – |
| CCSCC(C)(O)c1cc2cc(Cl)ccc2n1S(C)(=O)=O (racemic) [Compound 154] | – | – | 2 | – | – | % Inhibition, COS Binding [1]: 50%; % Inhibition, L929 androgen receptor functional assay [2]: 7% |
| CCSCC(C)(O)c1cc2ccc(C(F)(F)F)cc2n1S(C)(=O)=O (centres unmarked) [Compound 214] | – | – | – | – | > 3000 nM | – |
| COc1ccc(S(=O)(=O)CC(C)(O)c2cc3cc(Cl)c(C(F)(F)F)cc3n2S(C)(=O)=O)cc1 (centres unmarked) [Compound 128] | 21 | 44 | −4 | – | – | IC50 ([1]; IC50 (nM), COS Binding): > 1500 nM |
| CCSCC(C)(O)c1[nH]c2cc(C(F)(F)F)c([N+](=O)[O-])cc2c1C#N (centres unmarked) [Compound 242] | 92 | – | – | inactive | 305 nM | – |
| CCSCC(C)(O)c1[nH]c2cc(C(F)(F)F)c([N+](=O)[O-])cc2c1C#N (single isomer, unassigned) [Compound 247] | 90 | – | – | inactive | 60.7 nM | – |
| CC(O)(CSc1ccc(C(=O)O)cc1)c1cc2cc(Cl)c(C(F)(F)F)cc2n1S(C)(=O)=O (centres unmarked) [Compound 132] | 8.7 | 48 | −5 | – | – | IC50 ([1]; IC50 (nM), COS Binding): > 3000 nM |
| CCSCC(C)(CO)c1cc2cc([N+](=O)[O-])c(C(F)(F)F)cc2[nH]1 (centres unmarked) [Compound 11] | – | – | – | inactive | > 3000 nM | – |
| CCSCC(C)(O)Cc1cc2cc([N+](=O)[O-])c(C(F)(F)F)cc2[nH]1 (centres unmarked) [Compound 10] | – | – | – | inactive | > 3000 nM | – |
